Results published in US20210230554A1, “GENERATION OF FUNCTIONAL BETA CELLS FROM HUMAN PLURIPOTENT STEM CELL-DERIVED ENDOCRINE PROGENITORS” (Novo Nordisk A/S, priority 2018, published 2021).

Key:
[1] = tested on: endocrine progenitor cells; assay: BC step 1 screen: flow cytometry of INS, NKX6.1 and GCG expression; type: cell-based, human; settings: added on top of BC step 1 medium comprising DZNEP, Alk5i, Heparin, Nicotinamide; FIG. 3
Protocol: As a first step towards generating fully functional mature beta cells, we screened for factors to generate maximal numbers of immature INS+/NKX6.1+ cells (BC step 1 screen). […]
Compounds were screened for their ability to induce INS+, NKX6.1+ double positive immature BCs and few GCG positive cells within a 7 days period. Media change was performed daily. Cells were fixed at day 4 and day 7 of BC step 1 and analysed for INS NKX6.1 and GCG expression using flow cytometry (see Table 1 and FIG. 2). Briefly, differentiated endocrine cells were dispersed into single-cell suspension by incubation with TrypLE Express at 37° C. for 10 min. Differentiated endocrine cells were resuspended in 4% paraformaldehyde, washed in PBS followed by incubation with primary antibodies overnight and then secondary antibodies for 1 hour. The differentiated hPSCs co-expressed C-peptide+/NKX6.1+ with few cells expressing the α-cell hormone glucagon (FIG. 2). When quantified by flow cytometry, 48% of the cells co-expressed C-peptide+/NKX6-1 (FIG. 2), more than previously reported with stem cell-derived beta cells (Pagliuca et al., Cell. 2014 Oct. 9; 159(2):428-39. doi: 10.1016/j.cell.2014.09.040; Rezania et al., Nat Biotechnol. 2014 November; 32(11):1121-33. doi: 10.1038/nbt.3033. Epub 2014 Sep. 11).
Hits compounds of Table 2 have been identified in a primary screen.

[2] = tested on: stem cell-derived endocrine progenitor cells; assay: BC step 1 medium with or without Nicotinamide: BC FACS phenotype; type: cell-based, human; settings: BC step 1 medium with or without 10 mM Nicotinamide, 4 days, then 2 days BC step 2; FIG. 16
Protocol: To evaluate the effect of Nicotinamide, stem cell-derived endocrine progenitor cells were differentiated in BC step 1 medium with or without Nicotinamide, followed by a culturing step in BC step 2 medium.
Cell were differentiated to endocrine progenitors and then subjected to BC step 1 medium for 4 days (BC step 1 medium comprises RPMI1640 with Glutamax, 0.1% Pen/Strep, 12% KOSR, 10 μM Alk5i, 1 μM T3, 1 μM DZNEP, 10 μg/ml heparin, 25 μM DAPT, and with or without 10 mM Nicotinamide).
Cells were then subjected to BC step 2 cell culture medium for 2 days before analysing by FACS. BC step 2 medium consisted of: RPMI1640 with Glutamax, 0.1% Pen/Strep, 12% KOSR, 50 μM GABA, 10 μM Alk5i, 1 μM T3 and 10 μM DZNEP.

hPSC-derived beta cells = assay: Perfusion assay of dynamic human insulin secretion in vitro; type: cell-based
Protocol: Mature beta cells are functionally defined by their rapid response to elevate glucose. Secretion of human insulin by beta cells at the end of BC step 2 method with BC step 2 medium comprising 50 μM GABA, 10 μM Alk5i, 1 μM T3 was measured as repeated responses to 20 mM glucose±1 μM exendin-4 a GLP1-receptor agonist or ±the anti-diabetic sulfonylurea compound Tolbutamide within a perfusion system.
Briefly, groups of 300 hand-picked, clusters of hESC- or hiPSC-derived cell clusters were suspended with beads (Bio-Rad #150-4124) in plastic chambers of Biorep PERFUSION SYSTEM (Biorep #PERI-4.2). Under temperature and CO2-controlled conditions, the cells were perfused at 0.5 ml min−1 with a Krebs buffer. Prior to sample collection, cells were equilibrated under basal (2 mM glucose) conditions for 1 h. During perfusion cells were exposed to repeated challenges with 20 mM glucose±1 μM exendin-4 or ±100 μM Tolbutamide. At the end of perfusion, cells were exposed to cAMP-elevating agents (dbcAMP) on top of 20 mM glucose. Insulin secretion was measured by human insulin ELISA (Mercodia).

Dibutyryl-cAMP [dbcAMP]
number of INS+/NKX6.1+ cells [1]: highest number of INS+/NKX6.1+ cells

NC(=O)c1cccnc1 [Nicotinamide]
BC FACS phenotype [2]: not affected

C[C@H](NC(=O)Cc1cc(F)cc(F)c1)C(=O)NC(C(=O)OC(C)(C)C)c1ccccc1 (some centres unmarked) [DAPT]
number of INS+/NKX6.1+ cells [1]: highest number of INS+/NKX6.1+ cells

exendin-4
level of insulin secretion in the hPSC-derived beta cells (hPSC-derived beta cells; 20 mM glucose ± 1 μM exendin-4): increased the level of insulin secretion

CCCCNC(=O)NS(=O)(=O)c1ccc(C)cc1 [tolbutamide]
effect on insulin secretion (hPSC-derived beta cells; day 7 of BC step 2, 20 mM glucose ± 100 μM Tolbutamide): significant additive effect
